Like-named read-outs stand apart in the source and are kept apart here.
Legend:
icSARS-CoV-2-mNG [1] = assay: microbe, parasite or virus in culture; details: Severe acute respiratory syndrome coronavirus 2, Calu-3
icSARS-CoV-2-mNG [2] = details: for Therapeutic range: CC50/IC50, CTG / Therapeutic range: CC50/IC50, IncuCyte / Therapeutic range: CC50/IC50, MTT: human, calu-3 cells
Calu-3 cells [3] = details: read-out: CC50 IncuCyte, 72h, cell confluency, 4320 min
Protocol: (§1) Calu-3 (40.000/well), Huh7.5 (10.000/well) and CaCo2 (10.000/well) cells were seeded in 96-well plates in DMEM-Media. The cells were treated with the drug compounds at the indicated concentrations, negative control (non-treated), DMSO control and positive control (50% DMSO treated) were added, and plates were then stored in the IncuCyte® at 37 °C, 5 % CO2 for 72h measuring every 3 hours cell confluency via phase channel with 10x objective. For Analysis IncuCyte® S3 Software was used.
(§2) Plates were then stored in the IncuCyte® measuring every 3 hours cell confluency.

in vitro [4] = details: human, calu-3 cells, CC50 IncuCyte
Protocol: as §1, §2

[5] = test system: DENV type 2 reporter virus
Huh7.5 cells [6] = assay: Cell viability via live cell imaging (IncuCyte); details: read-out: CC50 IncuCyte, 72h, cell confluency
Protocol: as §1, §2

icSARS-CoV-2-mNG [7] = test system: icSARS-CoV-2-mNG
in vitro [8] = details: human, caco-2
Protocol: as §1, §2

[9] = test system: DENV type 2 reporter virus; assay: microbe, parasite or virus in culture; details: Dengue virus
in vitro [10] = details: human, huh7.5 cells, CC50 MTT
Calu-3 cells [11] = details: read-out: CC50 MTT, 72h
Huh7.5 cells [12] = details: read-out: CC50 MTT, 72h, 4320 min

Row | SMILES | IC50 (icSARS-CoV-2-mNG [1]) [µM] | Therapeutic range: CC50/IC50, CTG (icSARS-CoV-2-mNG [2]) | Therapeutic range: CC50/IC50, IncuCyte (icSARS-CoV-2-mNG [2]) | Therapeutic range: CC50/IC50, MTT (icSARS-CoV-2-mNG [2]) | SARS-CoV-2 infection (infection rate, mNG+/Hoechst+ cells) (icSARS-CoV-2-mNG [7]) | IC50 ([9]; Huh7.5, 24 h) [µM] | toxicity (staining of the nuclei, cell count) (icSARS-CoV-2-mNG [2]) | also measured
1 | COc1[nH]c(=O)c(C(=O)C(C)CC(C)C(Cl)CCl)c(O)c1OC (centres unmarked) [Atpenin A5] | 0.5 | CTG: 1.72 | IncuCyte: > 320 | MTT: 24 | inhibited SARS-CoV-2 infection of the cell lines in a dose-dependent manner | 0.27 |  | CC50 (Calu-3 cells [3]): > 80 µM; CC50 at 72 h (in vitro [4]; 72h, cell confluency): > 160 µM; Therapeutic range: CC50/IC50, CTG ([5]; Dengue Virus in Huh7.5 cells, CC50 by CTG): CTG: 229.5; Therapeutic range: CC50/IC50, IncuCyte ([5]; Dengue Virus in Huh7.5 cells, CC50 by IncuCyte): IncuCyte: 240.7; Therapeutic range: CC50/IC50, MTT ([5]; Dengue Virus in Huh7.5 cells, CC50 by MTT): MTT: 375.2; CC50 (Huh7.5 cells [6]): 65 µM; CC50 at 72 h (in vitro [8]): > 60 µM
2 | CN(C)C(=N)N=C(N)N [Metformin] | 459 |  |  |  |  |  | without any cytotoxicity | 
3 | [H]/N=C(/N)N/C(=N/[H])NCCc1ccccc1 [Phenformin, phenformin] | 1.73 | CTG: 1306.4 | IncuCyte: 867.1 | MTT: 876.3 | inhibited SARS-CoV-2 infection of the cell lines in a dose-dependent manner | 18.6 | without any toxicity | CC50 at 72 h (in vitro [10]): 61 µM; CC50 (Calu-3 cells [11]): 1520 µM; CC50 at 72 h (in vitro [4]): 1500 µM; Therapeutic range: CC50/IC50, CTG ([5]; human, huh7.5 cells): CTG: 109.2; Therapeutic range: CC50/IC50, IncuCyte ([5]; human, huh7.5 cells): IncuCyte: 59.9; Therapeutic range: CC50/IC50, MTT ([5]; human, huh7.5 cells): MTT: 3.3; IC50 ([9]; Huh7.5): 18.6 µM; CC50 (Huh7.5 cells [12]): 61.2 µM
4 | CC(C)Cc1nn(C)c(=O)c2c(SCCCO)n(Cc3cccc4ccccc34)cc12 [SR13800] |  |  |  |  |  |  |  | toxicity (cell viability by Hoechst staining of the nucleus) (icSARS-CoV-2-mNG [7]): toxic
5 | O[C@H]1[C@H](O)[C@@H](O)[C@H](O)[C@@H](O)[C@@H]1O [Scyllo-Inositol] |  |  |  |  | did not show any activity |  |  | 

Reference: patent EP4268810A1 (priority 2022, dated 2023)
